# Key:
# [1] = cited from earlier work
# [2] = test system: mice subjected to middle cerebral artery occlusion (MCAO); assay: In vivo ischemic/reperfusion model (MCAO), mouse model of stroke
# Experimental: Ischemic/Reperfusion Model. […] Mice were anesthetized by halothane inhalation (4%/L O2) and maintained with 1.5%/L O2. The middle cerebral artery was blocked by a silicone-coated 8-0 monofilament nylon surgical suture that was threaded through the external carotid to the internal carotid and finally blocks the bifurcation into the MCA and anterior cerebral artery. The filament was maintained intraluminally for 45 min and then removed, thereby restoring blood flow. Cerebral blood flow (CBF) was monitored throughout the surgery by laser Doppler flowmetry (Periflow 5000; Perimed, Sweden). During and 2 hours following surgery, body temperatures was kept constant at 37° C. with a heating pad controlled by a thermostat. Body weights were monitored prior to and following MCAO.
# Infarct calculations. […] Perfused brains were placed on a tissue slicer and sectioned into 1 mm thick coronal slices.
# [3] = test system: mouse cortical neuronal cultures
# Experimental: In vitro mouse neuronal cultures: Cortical neuronal cultures were prepared as described Jin et al. (Neurochem. Res. 27:1105-1112, 2002) from E-16 mouse pups (C57B1/6, Jackson labs). Briefly, cortices were dissected and separated from meninges, olfactory bulbs, basal ganglia and hippocampi, and the cortices digested in 0.05% trypsin-EDTA for 15 min at 37° C. Cells were triturated and single cell suspension was plated at density of 5×10^5 cells/ml. Cells were cultured in Neurobasal A medium (Invitrogen, Carlsbad) containing 2% B27, 2 mM Glutamate. Neuronal enrichment was determined by staining for neurons, microglia and astrocytes with cell specific markers.
# In vitro neuronal ischemia model: Neuronal cultures were treated with varying doses of an exemplary CpG oligonucleotide (SEQ ID NO: 1) in Neurobasal-A media supplemented with 1% Glutamax 24 hours prior to 3 hours oxygen-glucose-deprivation (OGD) treatment. OGD was performed by replacing medium with PBS containing 0.5 mM CaCl2 and 5 mM MgCl2, pH 7.4, and then placing the neuronal cultures in an anaerobic chamber (Form a Scientific) containing an atmosphere of 85% N2, 5% H2, 10% CO2 maintained at 35° C. Following OGD-treatment (3 hours), PBS was replaced with Minimum Essential Medium (MEM) and the cells returned to normoxic conditions. Percent neuronal cell death was determined by propidium iodide staining in two different fields of view in duplicate, compared to total DAPI staining in identical fields.
# In vitro neuronal ischemia model: Neuronal cultures were treated with varying doses (0.1 μg/ml and 1 μg/ml) of Gardiquimod in Neurobasal-A media supplemented with 1% Glutamax 24 hours prior to 3 hours oxygen-glucose-deprivation (OGD) treatment. OGD was performed and cells analyzed as described in Example 1.
# OGD was performed and cell analyzed as described in Example 1.
# TNF-α = assay: Serum TNF-α in mice, immunoassay; assay type: in vivo, mouse; conditions: 1 mg/kg, 2 hours prior to serum collection
# Experimental: (§1) Mice were injected with saline, CpG (0.8 mg/kg) LPS (0.4 mg/kg) or Poly I:C (1 mg/kg) 2 hours prior to serum collection. Levels of TNF-α and IFN-β were measured using commercially available immunoassay kits.
# [4] = test system: mice subjected to bilateral renal ischemia; assay: In vivo model of renal ischemia (bilateral renal clamping), serum creatinine; design: species or system mouse; conditions: 48 hours prior to bilateral renal clamping (45 minutes); 48 hours following reperfusion
# Experimental: Intraperitoneal Delivery: Preconditioning agent Poly I:C (25 μg) in artificial saline or saline alone (control) was administered intraperitoneally to subject mice 72 hours prior to middle cerebral artery occlusion (MCAO; 45 minutes) as described in Example 3 or 48 hours prior to bilateral renal clamping (45 min).
# Creatinine levels: To assess renal injury due to the ischemia, creatinine levels were measured 48 hours following reperfusion as follows. Mice were treated with saline or poly I:C (1.6 mg/kg; sc) 48 hrs prior to renal ischemia. Just prior to surgery blood was collected via the saphenous vien for baseline determination of creatinine levels. Bilateral ischemia was induced as follows: mice were anesthestized with 3% isoflurane and maintained at 1.5-2% throughout surgery. A midline incision was made and both kidneys exteriorized and clamps placed on the artery and veins of each kidney for 45 minutes. After ischemia, the clamps were withdrawn inducing reperfusion and the incision sutured up. Mice were euthanized 48 hr post initiation of reperfusion and blood collected. Serum levels of creatinine were determined via a commercially available immunoassay.
# [5] = test system: mouse cortical neuronal cultures; assay: In vitro neuronal ischemia model, treatment after OGD; assay type: cell-based; conditions: 1 to 100 μg/ml after 3 hours OGD; analyzed 24 hours later
# Experimental: In vitro neuronal ischemia model: Neuronal cultures were exposed to 3 hours oxygen-glucose-deprivation (OGD) treatment as described in Example 1. After OGD, cells were treated with 1 to 100 μg/ml Poly I:C. 24 hours later cells were analyzed as described in Example 1.
# IFN-β = assay: Serum IFN-β in mice, immunoassay; assay type: in vivo, mouse; conditions: 1 mg/kg, 2 hours prior to serum collection; versus CpG 0.8 mg/kg and LPS 0.4 mg/kg
# Experimental: as §1
# human TLR9 = target: T1, human TLR9 (Homo sapiens, UniProt Q9NR96); assay: NF-κB inducible SEAP reporter in 293-hTLR9 cells; assay type: cell-based; conditions: 5 μM, 18 hours; hydrolysis of pNpp at 405 nm
# T1 construct: host or cells: HEK293 (293-hTLR9)
# T1 sequence (Q9NR96 26-1032): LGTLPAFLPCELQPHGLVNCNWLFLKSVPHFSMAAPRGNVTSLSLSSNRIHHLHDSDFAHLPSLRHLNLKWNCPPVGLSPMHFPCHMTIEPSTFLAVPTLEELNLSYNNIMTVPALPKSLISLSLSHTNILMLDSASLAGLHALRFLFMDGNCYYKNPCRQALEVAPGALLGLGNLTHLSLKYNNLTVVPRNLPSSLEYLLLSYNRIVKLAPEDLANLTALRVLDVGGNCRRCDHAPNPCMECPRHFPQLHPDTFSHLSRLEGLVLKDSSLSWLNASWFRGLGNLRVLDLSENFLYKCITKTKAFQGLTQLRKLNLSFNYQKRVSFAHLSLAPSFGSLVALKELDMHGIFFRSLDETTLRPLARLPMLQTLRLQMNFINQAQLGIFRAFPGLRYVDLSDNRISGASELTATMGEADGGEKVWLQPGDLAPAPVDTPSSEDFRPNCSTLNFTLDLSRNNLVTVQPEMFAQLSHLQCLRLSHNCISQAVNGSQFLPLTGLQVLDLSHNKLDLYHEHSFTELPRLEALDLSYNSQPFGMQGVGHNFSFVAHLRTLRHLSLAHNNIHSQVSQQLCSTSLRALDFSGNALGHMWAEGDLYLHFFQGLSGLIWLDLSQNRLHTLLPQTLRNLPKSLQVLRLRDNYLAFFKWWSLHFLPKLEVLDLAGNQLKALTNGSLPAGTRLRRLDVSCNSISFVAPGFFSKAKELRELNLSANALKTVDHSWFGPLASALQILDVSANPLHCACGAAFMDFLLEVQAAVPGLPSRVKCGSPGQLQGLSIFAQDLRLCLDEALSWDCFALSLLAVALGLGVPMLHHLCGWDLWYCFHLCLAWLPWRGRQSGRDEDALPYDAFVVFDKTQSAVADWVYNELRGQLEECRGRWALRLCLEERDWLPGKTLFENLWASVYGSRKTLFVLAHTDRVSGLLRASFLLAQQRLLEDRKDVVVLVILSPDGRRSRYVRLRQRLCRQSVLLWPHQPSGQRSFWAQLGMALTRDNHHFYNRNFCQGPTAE
# Experimental: FIG. 3 is a bar graph illustrating NF-κB induction following in vitro treatment with an exemplary CpG oligonucleotide. 293-hTLR9 cells transfected with an NFκB inducible reporter plasmid (pNifty2-SEAP) were treated with CpG (5 μM). NFκB induction of alkaline phosphatase expression is indicated as hydrolysis of pNpp at 405 nm.
# Human embryonic kidney cell line HEK293 was transfected with an expressible nucleic acid encoding human TLR9 and with an NFκB reporter construct (InvivoGen). The dual transfected cells were incubated with a 5 μM CpG oligonucleotide (SEQ ID NO: 1) for 18 hours.
# [6] = 0.2-1.6 mg/kg subcutaneous 72 hours prior to 60 minutes MCAO, 24 hours post MCAO
compound,measurement,setting,value
CCOCc1nc2c(N)nc3ccccc3c2[nH]1 [CL097],water solubility,[1],≥ 20 mg/mL
CCOCc1nc2c(N)nc3ccccc3c2n1CC(C)(C)O [resiquimod],infarct size,"[2]; 0.8 mg/kg s.c. 72 hours prior to MCAO, 24 hours following MCAO",provides neuroprotection against cerebral ischemia
lipopolysaccharide [LPS],infarct size (neuroprotection),"[2]; mouse, in vivo, 0.4 mg/kg",no considerable neuroprotection
CC(C)Cn1cnc2c(N)nc3ccccc3c21 [imiquimod],infarct size,"[2]; mouse, in vivo, ip",protects against cell death
CCNCc1nc2c(N)nc3ccccc3c2n1CC(C)(C)O [Gardiquimod],percent infarct (% of hemisphere with infarction),"[2]; 0.2-1.6 mg/kg 72 hours prior to 60 minutes MCAO, TTC staining 24 hours later",percent infarct was significantly decreased in a dose-dependent fashion
same,focal neurological deficit,[2]; [6],reduced neurological deficits
same,general neurological deficit,[2]; [6],reduced neurological deficits
same,neuroprotection against oxygen-glucose deprivation (% cell death),"[3]; 0.1 or 1 μg/ml 24 hours prior to OGD (3 hours), propidium iodide staining 24 hours following OGD",confers neuroprotection against oxygen-glucose deprivation
polyinosinic polycytidylic acid [Poly I:C],serum TNFα levels,TNF-α,increases TNFα levels
same,serum creatinine levels (renal injury),[4],reduced the injury to baseline levels
same,percent infarct,"[2]; 25 μg intraperitoneally 72 hours prior to 45 minutes MCAO, TTC 72 hours following surgery",percent infarct was significantly decreased
same,"neuroprotection, treatment after oxygen-glucose deprivation",[5],induces neuroprotection
same,serum IFNβ levels,IFN-β,produces significantly more IFNβ than stimulation of TLR9 or TLR4
same,cell death without exposure to OGD,"[3]; highest dose, no OGD",did not induce cell death
same,neuroprotection against oxygen-glucose deprivation (cell death by PI staining),"[3]; mixed cortical cultures, increasing doses 24 hours prior to OGD",induces neuroprotection against oxygen-glucose deprivation
5′-tccatgacgttcctgacgtt-3′ [CpG oligonucleotide (SEQ ID NO: 1)],"percent infarct, time course of preconditioning",[2]; 20 μg administered between 72 and 24 hours prior to MCAO,peak preconditioning
same,"percent infarct, time course of preconditioning",[2]; 20 μg administered up to a week prior to MCAO,significant preconditioning
same,percent infarct,"[2]; intraperitoneal, 72 hours prior to 45 min MCAO",percent infarct was significantly decreased
same,NFκB induction of alkaline phosphatase expression,human TLR9,produced alkaline phosphatase
same,neuroprotection against oxygen-glucose deprivation (percent neuronal cell death),"[3]; treated 24 hours prior to 3 hours OGD, propidium iodide staining",confers neuroprotection against oxygen-glucose deprivation
